In US11371013B2, “Culture medium composition and method of culturing cell or tissue using thereof” (Nissan Chemical Industries, Ltd., priority 2012, dated 2022):
Starred links: 1 amine or outer side, 2 acyl side, 3 side chain; linkers in the order of their positions; H or OH if unused. Positions of bridges follow the written chain, without caps; N, C: chain ends. Non-standard residues stand in square brackets, D forms with d. Residues, ends and D or L forms follow the SMILES beside them. Chains are numbered I, II in the order given. Actinocin(9to1) = Cc1c2oc3c(C)ccc(C(=O)[*:1])c3nc-2c(C(=O)[*:2])c(N)c1=O; NMeV = CN[C@H](C(=O)O)C(C)C; Sar = CNCC(=O)O

Columns and labels:
Type in all cases: cell-based, human
HeLa cells [1] = assay: Comparison with single layer culture method in cell proliferation test using agent for inducing apoptosis; details: day 4
Description: (§1) This aqueous solution was sterilized at 121° C. for 20 min in an autoclave.
Each plate was cultured by being stood still in a CO2 incubator (37° C., 5% CO2). […] To the culture medium on day 4 was added an ATP reagent (150 μL) (CellTiter-Glo (registered trade mark) Luminescent Cell Viability Assay, manufactured by Promega) to give a suspension, which was stood for about 10 min at room temperature, and the luminescence intensity (RLU value) was measured by FlexStation3 (manufactured by Molecular Devices), and the number of viable cells was measured by subtracting the luminescence value of the medium alone. For WST-8 measurement, a WST-8 solution (manufactured by is DOJINDO Laboratories, 15 μL) was added, the mixture was incubated at 37° C. for 100 min, the absorbance at 450 nm was measured by an absorbance spectrometer (manufactured by Molecular Devices, SPECTRA MAX 190), and the number of viable cells was measured by subtracting the absorbance of the medium alone.

A549 cells = assay: A549 cell proliferation test using Trametinib and MK-2206; details: drug from day 1 for 5 days
Description: This aqueous solution was sterilized at 121° C. for 20 min is in an autoclave.
(§2) Each plate was cultured by being stood still in a CO2 incubator (37° C., 5% CO2). […] The anticancer drugs used were Trametinib (manufactured by Santa Cruz, MEK inhibitor) and MK-2206 (manufactured by Santa Cruz, Akt inhibitor). To the culture medium on day 6 was added an ATP reagent (150 μL) (CellTiter-Glo (registered trade mark) Luminescent Cell Viability Assay, manufactured by Promega) to give a suspension, which was stood for about 10 min at room temperature, and the luminescence intensity (RLU value) was measured by FlexStation3 (manufactured by Molecular Devices), and the number of viable cells was measured by subtracting the luminescence value of the medium alone.

HeLa cells [2] = assay: HeLa cell proliferation test using Trametinib and MK-2206; details: drug from day 1 for 5 days
Description: as §1, §2

[3] = 1 μM, deacylated gellan gum addition group (0.015%)
[4] = 1 μM, single layer culture group
[5] = 10 μM, deacylated gellan gum addition group (0.015%)
[6] = 10 μM, single layer culture group
[7] = 100 μM, deacylated gellan gum addition group (0.015%)
[8] = 100 μM, single layer culture group
[9] = 0.03 μM, deacylated gellan gum addition group (0.015%)
[10] = 0.03 μM, single layer culture group
[11] = 0.3 μM, deacylated gellan gum addition group (0.015%)
[12] = 0.3 μM, single layer culture group
[13] = 3 μM, deacylated gellan gum addition group (0.015%)
[14] = 3 μM, single layer culture group
[15] = 30 μM, deacylated gellan gum addition group (0.015%)
[16] = 30 μM, single layer culture group
[17] = 0.001 μM, deacylated gellan gum addition group (0.015%)
[18] = 0.001 μM, single layer culture group
[19] = 0.01 μM, deacylated gellan gum addition group (0.015%)
[20] = 0.01 μM, single layer culture group
[21] = 0.1 μM, deacylated gellan gum addition group (0.015%)
[22] = 0.1 μM, single layer culture group

Cc1c2oc3c(C)ccc(C(=O)N[C@@H]4C(=O)N[C@H](C(C)C)C(=O)N5CCC[C@H]5C(=O)N(C)CC(=O)N(C)[C@@H](C(C)C)C(=O)O[C@@H]4C)c3nc-2c(C(=O)N[C@@H]2C(=O)N[C@H](C(C)C)C(=O)N3CCC[C@H]3C(=O)N(C)CC(=O)N(C)[C@@H](C(C)C)C(=O)O[C@@H]2C)c(N)c1=O [Actinomycin D] (I: T[dV]P[Sar][NMeV] / II: T[dV]P[Sar][NMeV]; ester I:1-I:C, II:1-II:C; linker I:N-II:N via Actinocin(9to1))
% Control of RLU value (ATP) (HeLa cells [1]; [3]): 4 % Control | % Control of absorbance at 450 nm (WST-8) (HeLa cells [1]; [3]): 3 % Control | % Control of RLU value (ATP) (HeLa cells [1]; [4]): 2 % Control | % Control of absorbance at 450 nm (WST-8) (HeLa cells [1]; [4]): 2 % Control | % Control of RLU value (ATP) (HeLa cells [1]; [5]): 6 % Control | % Control of absorbance at 450 nm (WST-8) (HeLa cells [1]; [5]): 12 % Control | % Control of RLU value (ATP) (HeLa cells [1]; [6]): 2 % Control | % Control of absorbance at 450 nm (WST-8) (HeLa cells [1]; [6]): 4 % Control

C[C@@H]1C[C@@H]([C@H](O)CC2CC(=O)NC(=O)C2)C(=O)[C@@H](C)C1 [Cycloheximide]
% Control of RLU value (ATP) (HeLa cells [1]; [5]): 9 % Control | % Control of absorbance at 450 nm (WST-8) (HeLa cells [1]; [5]): 4 % Control | % Control of RLU value (ATP) (HeLa cells [1]; [6]): 29 % Control | % Control of absorbance at 450 nm (WST-8) (HeLa cells [1]; [6]): 21 % Control | % Control of RLU value (ATP) (HeLa cells [1]; [7]): 4 % Control | % Control of absorbance at 450 nm (WST-8) (HeLa cells [1]; [7]): 1 % Control | % Control of RLU value (ATP) (HeLa cells [1]; [8]): 9 % Control | % Control of absorbance at 450 nm (WST-8) (HeLa cells [1]; [8]): 7 % Control

C[C@@H]1C[C@H]2[C@@H]3CCC4=CC(=O)C=C[C@]4(C)[C@@]3(F)[C@@H](O)C[C@]2(C)[C@@]1(O)C(=O)CO [Dexamethasone]
% Control of RLU value (ATP) (HeLa cells [1]; [3]): 232 % Control | % Control of absorbance at 450 nm (WST-8) (HeLa cells [1]; [3]): 184 % Control | % Control of RLU value (ATP) (HeLa cells [1]; [5]): 241 % Control | % Control of absorbance at 450 nm (WST-8) (HeLa cells [1]; [5]): 173 % Control | % Control of RLU value (ATP) (HeLa cells [1]; [6]): 116 % Control

NC1(c2ccc(-c3nc4ccn5c(=O)[nH]nc5c4cc3-c3ccccc3)cc2)CCC1 [MK-2206]
% Control of RLU value (ATP) (A549 cells; [9]): 84 % Control | % Control of RLU value (ATP) (A549 cells; [10]): 93 % Control | % Control of RLU value (ATP) (A549 cells; [11]): 45 % Control | % Control of RLU value (ATP) (A549 cells; [12]): 79 % Control | % Control of RLU value (ATP) (A549 cells; [13]): 21 % Control | % Control of RLU value (ATP) (A549 cells; [14]): 53 % Control | % Control of RLU value (ATP) (A549 cells; [15]): 0 % Control | % Control of RLU value (ATP) (A549 cells; [16]): 0 % Control | % Control of RLU value (ATP) (HeLa cells [2]; [9]): 57 % Control | % Control of RLU value (ATP) (HeLa cells [2]; [10]): 93 % Control | % Control of RLU value (ATP) (HeLa cells [2]; [11]): 21 % Control | % Control of RLU value (ATP) (HeLa cells [2]; [12]): 84 % Control | % Control of RLU value (ATP) (HeLa cells [2]; [13]): 21 % Control | % Control of RLU value (ATP) (HeLa cells [2]; [14]): 69 % Control | % Control of RLU value (ATP) (HeLa cells [2]; [15]): 0 % Control | % Control of RLU value (ATP) (HeLa cells [2]; [16]): 0 % Control

CC(=O)Nc1cccc(-n2c(=O)n(C3CC3)c(=O)c3c(Nc4ccc(I)cc4F)n(C)c(=O)c(C)c32)c1 [Trametinib]
% Control of RLU value (ATP) (A549 cells; [17]): 72 % Control | % Control of RLU value (ATP) (A549 cells; [18]): 71 % Control | % Control of RLU value (ATP) (A549 cells; [19]): 35 % Control | % Control of RLU value (ATP) (A549 cells; [20]): 37 % Control | % Control of RLU value (ATP) (A549 cells; [21]): 2 % Control | % Control of RLU value (ATP) (A549 cells; [22]): 5 % Control | % Control of RLU value (ATP) (A549 cells; [3]): 0 % Control | % Control of RLU value (ATP) (A549 cells; [4]): 1 % Control | % Control of RLU value (ATP) (HeLa cells [2]; [17]): 73 % Control | % Control of RLU value (ATP) (HeLa cells [2]; [18]): 102 % Control | % Control of RLU value (ATP) (HeLa cells [2]; [19]): 12 % Control | % Control of RLU value (ATP) (HeLa cells [2]; [20]): 93 % Control | % Control of RLU value (ATP) (HeLa cells [2]; [21]): 1 % Control | % Control of RLU value (ATP) (HeLa cells [2]; [22]): 20 % Control | % Control of RLU value (ATP) (HeLa cells [2]; [3]): 1 % Control | % Control of RLU value (ATP) (HeLa cells [2]; [4]): 3 % Control
